From US11932633B2, “KRas G12C inhibitors” (Mirati Therapeutics, Inc., priority 2018, dated 2024) come the findings set out here.

SMILES strings stand for the structures.

In assay [1] the target is T1, KRas G12C (Homo sapiens, UniProt P01116, C118S/C51S/C80L/G12C).
T1 construct: GDP-loaded K-Ras (1-169) G12C, C51S, C80L, C118S
The experiment in a line: KRas G12C Modification Assay (LCMS detection of covalent adduct). Particulars: 5 μM concentration for 3 hours. In kind it is binding. Here is the method:
This Example illustrates that exemplary compounds of the present invention covalently bind to KRas G12C using a LCMS assay to detect a covalent adduct of the exemplary compound and KRAS G12C.
The protein concentration of GDP-loaded K-Ras (1-169) G12C, C51S, C80L, C118S and GTP-loaded K-Ras (1-169) G12C, C51S, C80L, C118S, Q61H was adjusted to 2 μM in K-Ras Assay Buffer (25 mM HEPES, 150 mM NaCl, 5 mM MgCl2, and 10 mM Octyl β-glucopyranoside at pH 7.5). A 10 μL aliquot of each protein solution was transferred to a 384 well microtiter plate. Initial compound stocks were generated at fifty times their desired final assay concentration in DMSO.
Exemplary compounds of formula (I) were diluted 25-fold into K-Ras Assay Buffer to a final of two times their final concentration. A 10 μL aliquot of each diluted compound solution was added to each of the protein solutions in the microtiter plate to initiate reaction. Typical final compound concentrations were 3.0, 5.0 and 25.0 μM. At each time point, the reactions were quenched with 20 μL of a 25 mM acetic acid solution. Usual assay endpoints were 15, 180 and 1440 minutes. Once all reactions were quenched, the plates were heat sealed and the samples were injected into a LC/MS system for data acquisition.
Data collection took place on an Agilent 6520 Q-TOF Accurate Mass Spectrometer. Samples were injected in their liquid phase onto a C-3 reverse phase column to remove assay buffer and prepare the samples for mass spectrometer. The proteins were eluted from the column using an acetonitrile gradient and fed directly into the mass analyzer. Initial raw data analysis took place in Agilent MassHunter software immediately post data acquisition.
Raw data analysis of the intact protein was exclusively a deconvolution of the multiple charge states of each protein in solution using a maximum entropy deconvolution provided in Mass Hunter. To minimize complexity, only the data over limited mass ranges were considered for analysis, with a minimum of one Dalton mass step intervals. The heights of all masses identified during raw data analysis were exported to be further analyzed in Spotfire® data analysis software.
Final data analysis was a multistep process in the Spotfire® data analysis software package. Briefly, each protein mass was calculated as a percent of the total signal of that sample, that percentage was normalized to the percentage of signal of the protein in the absence of reactive compounds. Those normalized signals were reported as normalized percent of control (POC). […] Key: N.D. is not determined.

Assay [2] concerns the target T2, KRas G12C (Homo sapiens, UniProt P01116, G12C).
T2 construct: NCI-11358 cells (ATCC CRL-5807) express KRas G12C; host or cells: NCI-H358
The experiment in a line: Cellular inhibition of KRas G12C measured by Phospho-ERK in NCI-11358 cells. To be noted: NCI-11358 cells (ATCC CRL-5807), 3 hours; read-out: Inhibition (IC50, pERK (Thr202/Tyr204) signal normalized with GAPDH). In kind it is cell-based. Here is the method: The cellular inhibition of KRAs G12C by exemplary compounds of the present invention was determined by measuring the amount of a downstream marker of KRas activity, phosphorylated ERK (“Phospho-ERK”).
NCI-11358 cells (ATCC CRL-5807) express KRas G12C and were grown in RPMI medium supplemented with 10% fetal bovine serum, penicillin/streptomycin and 10 mM HEPES. Cells were plated in poly-D-Lysine coated 96-well plates at a concentration of 50,000 cells/well and allowed to attach for 8-12 hours. Diluted compounds were then added at a final concentration of 0.5% DMSO. After 3 hours, the medium was removed, 150 μL of 4% formaldehyde was added and the plates were incubated for 20 minutes. The plates were washed with PBS, and permeabilized using 150 μL of ice cold 100% methanol for 10 minutes. Non-specific antibody binding to the plates was blocked using 100 μL Licor Blocking Buffer (Li-Cor Biotechnology, Lincoln NE) for 1 hour at room temperature. Positive control samples and samples lacking cells were parallel processed with test samples as standards.
The amount Phospho-ERK was determined using an antibody specific for the phosphorylated form of ERK and compared to the amount of GAPDH. Primary antibodies used for detection were added as follows: Phospho-ERK (Cell Signaling cs9101) diluted 1:500 and GAPDH (Millipore MAB374) diluted 1:5000 in Licor block+0.05% Tween 20. The plates were incubated for 2 hours at room temperature. The plates were washed with PBS+0.05% Tween 20.
Secondary antibodies used to visualize primary antibodies were added as follows: Anti-rabbit-680 diluted 1:1000 and Anti-mouse-800 diluted 1:1000 in Licor Block+0.05% Tween 20 and incubated for 1 hour at room temperature. The plates were washed with PBS+0.05% Tween 20. A 100 μL aliquot of PBS was added to each well and the plates were read on a LICOR AERIUS plate reader.
The pERK (Thr202/Tyr204) signal was normalized with the GAPDH signal and percent of DMSO control values were calculated. IC50 values were generated using a 4 parameter fit of the dose response curve. Key: “A”: ≤1 μM, “B”>1 μM and N.D.=not determined.

As to `C=CC(=O)N1CC(CN2C(=O)COc3cc(-c4cc(O)cc5ccccc45)c(C#N)cc32)C1` [Example 32, 4-((1-acryloylazetidin-3-yl)methyl)-7-(3-hydroxynaphthalen-1-yl)-3-oxo-3,4-dihydro-2H-benzo[b][1,4]oxazine-6-carbonitrile], the “POC (normalized percent of control, covalent modification of KRas G12C)” value on KRas G12C [1] is reported as 81% of control. Further, the IC50 at KRas G12C [2] was more than 1000 nM.

With `C=CC(=O)N1CC(CN2C(=O)[C@H](CCN(C)C)Oc3cc(-c4cccc5ccccc45)c(Cl)cc32)C1` [Example 33, (S)-4-((1-acryloylazetidin-3-yl)methyl)-6-chloro-2-(2-(dimethylamino)ethyl)-7-(naphthalen-1-yl)-2H-benzo[b][1,4]oxazin-3(4H)-one], on KRas G12C [1], the “POC (normalized percent of control, covalent modification of KRas G12C)” value was 32% of control. In addition, the IC50 at KRas G12C [2] was more than 1000 nM.

For the compound `C=CC(=O)N1CC(CN2C(=O)[C@H](CCN3CCOCC3)Oc3cc(-c4cc(O)cc5ccccc45)c(Cl)cc32)C1` [Example 34, (S)-4-((1-acryloylazetidin-3-yl)methyl)-6-chloro-7-(3-hydroxynaphthalen-1-yl)-2-(2-morpholinoethyl)-2H-benzo[b][1,4]oxazin-3(4H)-one], the “POC (normalized percent of control, covalent modification of KRas G12C)” value at KRas G12C [1] is 93% of control. At KRas G12C [2], the IC50 was not above 1000 nM.

With `C=CC(=O)N1CC(CN2C(=O)COc3cc(-c4ccccc4C(F)(F)F)c(Cl)cc32)C1` [Example 37, 4-((1-acryloylazetidin-3-yl)methyl)-6-chloro-7-(2-(trifluoromethyl)phenyl)-2H-benzo[b][1,4]oxazin-3(4H)-one], on KRas G12C [1], the “POC (normalized percent of control, covalent modification of KRas G12C)” value is 66% of control. For the same compound, at KRas G12C [2], the IC50 was more than 1000 nM.

In the case of `C=CC(=O)N1CC(CN2C(=O)COc3cc(-c4[nH]nc(C)c4C)c(Cl)cc32)C1` [Example 38, 6-chloro-7-(3,4-dimethyl-1H-pyrazol-5-yl)-4-[(1-prop-2-enoylazetidin-3-yl)methyl]-1,4-benzoxazin-3-one], the “POC (normalized percent of control, covalent modification of KRas G12C)” value at KRas G12C [1] is recorded as 72% of control. Further, on KRas G12C [2], the IC50 was more than 1000 nM.
